Several values for one entry are separate records, joined by “and”; a condition that tells them apart may be missing. Identical values can stand only once. Counter-ions that a name gives are not always drawn.
Biological target: T1, full length SGK1 (Homo sapiens, UniProt O00141)
T1 construct: 125 μM full length SGK1 (Life Technologies Part #PR7358A); purchased Life Technologies PR7358A
T1 sequence (O00141 1-431): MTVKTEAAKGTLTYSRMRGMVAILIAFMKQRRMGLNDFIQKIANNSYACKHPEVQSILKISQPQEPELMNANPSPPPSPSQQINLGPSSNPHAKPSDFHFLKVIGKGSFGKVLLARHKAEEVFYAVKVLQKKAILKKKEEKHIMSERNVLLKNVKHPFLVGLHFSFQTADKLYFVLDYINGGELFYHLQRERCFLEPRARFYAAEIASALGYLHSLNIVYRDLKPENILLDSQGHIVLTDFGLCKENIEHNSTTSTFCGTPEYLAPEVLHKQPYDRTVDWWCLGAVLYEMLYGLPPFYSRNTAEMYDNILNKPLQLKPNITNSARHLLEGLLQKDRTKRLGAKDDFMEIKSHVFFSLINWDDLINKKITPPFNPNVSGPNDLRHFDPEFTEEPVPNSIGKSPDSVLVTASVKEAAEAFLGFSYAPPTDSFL
Assay: SGK1 inhibition Assay A (Caliper LabChip electrophoretic separation of fluorescent peptide substrate and phosphorylated product)
Type: biochemical
Details: Assay A; 20 μM ATP, 40 min incubation; read-out: SGK1 IC50

Row | Compound | IC50
1 | CC(=O)NCCOc1cc(C(F)F)sc1C(=O)N[C@@H]1CCCN(c2cc(-c3ccc(=O)n(CC(F)F)c3)n3ncnc(N)c23)C1 [Example 427, (R)-3-(2-acetamidoethoxy)-N-(1-(4-amino-7-(1-(2,2-difluoroethyl)-6-oxo-1,6-dihydropyridin-3-yl)pyrrolo[2,1-f][1,2,4]triazin-5-yl)piperidin-3-yl)-5-(difluoromethyl)thiophene-2-carboxamide] | 12 nM
2 | CC(=O)N1CC=C(c2cc(N3CCC[C@@H](NC(=O)c4ccc5c(c4)OCO5)C3)c3c(N)ncnn23)C1 [Example 467, (R)-N-(1-(7-(1-acetyl-2,5-dihydro-1H-pyrrol-3-yl)-4-aminopyrrolo[2,1-f][1,2,4]triazin-5-yl)piperidin-3-yl)benzo[d][1,3]dioxole-5-carboxamide] | 64 nM
3 | CC(=O)N1CC=C(c2cc(N3CCC[C@@H](NC(=O)c4sc(C(F)F)cc4C4=CCN(C)CC4)C3)c3c(N)ncnn23)C1 [Example 322, (R)—N-(1-(7-(1-acetyl-2,5-dihydro-1H-pyrrol-3-yl)-4-aminopyrrolo[2,1-f][1,2,4]triazin-5-yl)piperidin-3-yl)-5-(difluoromethyl)-3-(1-methyl-1,2,3,6-tetrahydropyridin-4-yl)thiophene-2-carboxamide] | 96 nM
4 | COC(=O)N1CC=C(c2cc(N3CCC[C@@H](NC(=O)c4sc(Cl)cc4OCCN4CC(F)(F)C4)C3)c3c(N)ncnn23)C1 [Example 288, Methyl (R)-3-(4-amino-5-(3-(5-chloro-3-(2-(3,3-difluoroazetidin-1-yl)ethoxy)thiophene-2-carboxamido)piperidin-1-yl)pyrrolo[2,1-f][1,2,4]triazin-7-yl)-2,5-dihydro-1H-pyrrole-1-carboxylate] | 16 nM
5 | CS(=O)(=O)N1CC=C(c2cc(N3CCC[C@@H](NC(=O)c4ccccc4)C3)c3c(N)ncnn23)C1 [Example 113, (R)—N-(1-(4-amino-7-(1-(methylsulfonyl)-2,5-dihydro-1H-pyrrol-3-yl)pyrrolo[2,1-f][1,2,4]triazin-5-yl)piperidin-3-yl)benzamide, TFA] | 23 nM
6 | COCCOc1cc(Cl)sc1C(=O)N[C@@H]1CCCN(c2cc(C3=CCN(S(C)(=O)=O)C3)n3ncnc(N)c23)C1 [Example 140, (R)—N-(1-(4-amino-7-(1-(methylsulfonyl)-2,5-dihydro-1H-pyrrol-3-yl)pyrrolo[2,1-f][1,2,4]triazin-5-yl)piperidin-3-yl)-5-chloro-3-(2-methoxyethoxy)thiophene-2-carboxamide] | 6 nM
7 | CS(=O)(=O)c1ccc(-c2cc(N3CCC[C@@H](NC(=O)CCc4ccccc4)C3)c3c(N)ncnn23)cc1 [Example 15, (R)-N-(1-(4-amino-7-(4-(methylsulfonyl)phenyl)pyrrolo[2,1-f][1,2,4]triazin-5-yl)piperidin-3-yl)-3-phenylpropanamide, TFA] | 499 nM
8 | CC(C)N1CCC(Oc2cc(C3CC3)sc2C(=O)N[C@@H]2CCCN(c3cc(-c4ccc(C#N)nc4)n4ncnc(N)c34)C2)CC1 [Example 382, (R)-N-(1-(4-amino-7-(6-cyanopyridin-3-yl)pyrrolo[2,1-f][1,2,4]triazin-5-yl)piperidin-3-yl)-5-cyclopropyl-3-((1-isopropylpiperidin-4-yl)oxy)thiophene-2-carboxamide] | 5 nM
9 | COC(=O)N1CCC(c2cc(N3CCC[C@@H](NC(=O)c4sc5ccccc5c4OC4CN(C(=O)OC(C)(C)C)C4)C3)c3c(N)ncnn23)C1 (stereo partly drawn) [Example 671, methyl 3-(4-amino-5-((R)-3-(3-((1-(tert-butoxycarbonyl)azetidin-3-yl)oxy)benzo[b]thiophene-2-carboxamido)piperidin-1-yl)pyrrolo[2,1-f][1,2,4]triazin-7-yl)pyrrolidine-1-carboxylate] | 67 nM
10 | CS(=O)(=O)c1ccc(-c2cc(N3CCC[C@@H](NC(=O)c4ccccc4OC(F)F)C3)c3c(N)ncnn23)cc1 [Example 58, (R)-N-(1-(4-amino-7-(4-(methylsulfonyl)phenyl)pyrrolo[2,1-f][1,2,4]triazin-5-yl)piperidin-3-yl)-2-(difluoromethoxy) benzamide, TFA] | 854 nM
11 | COc1cc(C(=O)N[C@@H]2CCCN(c3cc(C4=CCN(S(C)(=O)=O)C4)n4ncnc(N)c34)C2)ccn1 [Example 114, (R)—N-(1-(4-amino-7-(1-(methylsulfonyl)-2,5-dihydro-1H-pyrrol-3-yl)pyrrolo[2,1-f][1,2,4]triazin-5-yl)piperidin-3-yl)-2-methoxyisonicotinamide] | 16 nM
12 | CC(=O)N1CC=C(c2cc(N3CCC[C@@H](NC(=O)c4ccc(C)s4)C3)c3c(N)ncnn23)C1 [Example 255, (R)—N-(1-(7-(1-acetyl-2,5-dihydro-1H-pyrrol-3-yl)-4-aminopyrrolo[2,1-f][1,2,4]triazin-5-yl)piperidin-3-yl)-5-methylthiophene-2-carboxamide] | 10 nM
13 | CC(=O)N1CC=C(c2cc(N3CCC[C@@H](NC(=O)c4sc(C(F)F)cc4OC4COC4)C3)c3c(N)ncnn23)C1 [Example 433, (R)—N-(1-(7-(1-acetyl-2,5-dihydro-1H-pyrrol-3-yl)-4-aminopyrrolo[2,1-f][1,2,4]triazin-5-yl)piperidin-3-yl)-5-(difluoromethyl)-3-(oxetan-3-yloxy)thiophene-2-carboxamide] | 18 nM
14 | COc1cc(-c2cc(N3CCC[C@@H](NC(=O)c4ccc(Cl)s4)C3)c3c(N)ncnn23)cc(C(F)(F)F)n1 [Example 232, N-[(3R)-1-{4-amino-7-[2-methoxy-6-(trifluoromethyl)pyridin-4-yl]pyrrolo[2,1-f][1,2,4]triazin-5-yl}piperidin-3-yl]-5-chlorothiophene-2-carboxamide] | 161 nM
15 | CC(=O)N1CC=C(c2cc(N3CCC[C@@H](NC(=O)c4sc(C)cc4N4CCN(C)CC4)C3)c3c(N)ncnn23)C1 [Example 269, (R)—N-(1-(7-(1-acetyl-2,5-dihydro-1H-pyrrol-3-yl)-4-aminopyrrolo[2,1-f][1,2,4]triazin-5-yl)piperidin-3-yl)-5-methyl-3-(4-methylpiperazin-1-yl)thiophene-2-carboxamide] | 31 nM

Second part, the compound after the results:

Row | IC50 | Compound
16 | 7 nM | CN1CCN(c2cccc(C(=O)N[C@@H]3CCCN(c4cc(-c5ccc(C#N)nc5)n5ncnc(N)c45)C3)n2)CC1 [Example 785, (R)—N-(1-(4-amino-7-(6-cyanopyridin-3-yl)pyrrolo[2,1-f][1,2,4]triazin-5-yl)piperidin-3-yl)-6-(4-methylpiperazin-1-yl)picolinamide]
17 | 362 nM | N#Cc1ncc(-c2cc(N3CCC[C@@H](NC(=O)c4ccc(C(F)F)s4)C3)c3c(N)ncnn23)cc1C(F)(F)F [Example 524, (R)-N-(1-(4-amino-7-(6-cyano-5-(trifluoromethyl)pyridin-3-yl)pyrrolo[2,1-f][1,2,4]triazin-5-yl)piperidin-3-yl)-5-(difluoromethyl)thiophene-2-carboxamide]
18 | 107 nM | CC(=O)N1CC=C(c2cc(N3CCC[C@@H](NC(=O)c4snnc4C)C3)c3c(N)ncnn23)C1 [Example 473, (R)-N-(1-(7-(1-acetyl-2,5-dihydro-1H-pyrrol-3-yl)-4-aminopyrrolo[2,1-f][1,2,4]triazin-5-yl)piperidin-3-yl)-4-methyl-1,2,3-thiadiazole-5-carboxamide]
19 | 484 nM | CC(=O)N1CC=C(c2cc(N3CCC[C@@H](NC(=O)c4cn5ccc(C#N)cc5n4)C3)c3c(N)ncnn23)C1 [Example 679, (R)—N-(1-(7-(1-acetyl-2,5-dihydro-1H-pyrrol-3-yl)-4-aminopyrrolo[2,1-f][1,2,4]triazin-5-yl)piperidin-3-yl)-7-cyanoimidazo[1,2-a]pyridine-2-carboxamide]
20 | 3 nM | NC(=O)N1CC=C(c2cc(N3CCC[C@@H](NC(=O)c4ccc(Cl)s4)C3)c3c(N)ncnn23)C1 [Example 913, (R)-3-(4-amino-5-(3-(5-chlorothiophene-2-carboxamido)piperidin-1-yl)pyrrolo[2,1-f][1,2,4]triazin-7-yl)-2,5-dihydro-1H-pyrrole-1-carboxamide]
21 | 997 nM | CC(=O)N1CC=C(c2cc(N3CCC[C@@H](NC(=O)C4CC(F)(F)C4)C3)c3c(N)ncnn23)C1 [Example 711, (R)-N-(1-(7-(1-acetyl-2,5-dihydro-1H-pyrrol-3-yl)-4-aminopyrrolo[2,1-f][1,2,4]triazin-5-yl)piperidin-3-yl)-3,3-difluorocyclobutane-1-carboxamide]
22 | 23 nM | CC(=O)N1CC=C(c2cc(N3CCC[C@@H](NC(=O)c4cccc(OCC5CN(C)C5)n4)C3)c3c(N)ncnn23)C1 [Example 733, (R)-N-(1-(7-(1-acetyl-2,5-dihydro-1H-pyrrol-3-yl)-4-aminopyrrolo[2,1-f][1,2,4]triazin-5-yl)piperidin-3-yl)-6-((1-methylazetidin-3-yl)methoxy)picolinamide]
23 | 1420 nM | CCn1cc(-c2cc(N3CCC[C@@H](NC(=O)c4sc(Cl)cc4OCCN(C)C)C3)c3c(N)ncnn23)ccc1=O [Example 682, (R)—N-(1-(4-amino-7-(1-ethyl-6-oxo-1,6-dihydropyridin-3-yl)pyrrolo[2,1-f][1,2,4]triazin-5-yl)piperidin-3-yl)-5-chloro-3-(2-(dimethylamino)ethoxy)thiophene-2-carboxamide]
24 | 16 nM and 26 nM | CN(C)CCOc1cc(Cl)sc1C(=O)N[C@@H]1CCCN(c2cc(-c3cncnc3)n3ncnc(N)c23)C1 [Example 583, (R)-N-(1-(4-amino-7-(pyrimidin-5-yl)pyrrolo[2,1-f][1,2,4]triazin-5-yl)piperidin-3-yl)-5-chloro-3-(2-(dimethylamino)ethoxy)thiophene-2-carboxamide]
